The source of these data is patent US9011925B2, “Method for preparing polysaccharide nanocomposite particles and uses of the same” (China Medical University, priority 2011, dated 2015).

Structures are written as SMILES. Values after ≈ are worked out from the molar mass of the structure shown.

Data set [1] in a line: Surface potential analysis (Zetasizer, DLS). In kind it is physicochemical. Particulars: diluted 50-folds with water, sonicated 1 hour. Here is the method:
[Surface Potential Analysis]
The samples were diluted 50-folds with water, and sonicated for 1 hour by using an ultrasonic vibration machine. Then, the samples dissolved in water were analyzed by using a Zetasizer machine (Malvern ZS90) based on the principle of dynamic light scattering (DLS) to observe the surface potential and particle size distribution of the particles.

Another data set deals with p53 protein. As to conditions: HepG2/A2 cells; cited from earlier work.
Another data set concerns HepG2/A2. As to conditions: cited from earlier work.
For data set [2], the system named is Colo 205 human rectum tumor cells. Description: Cytotoxicity assay (MTT). In kind it is cell-based. Particulars: colo 205 cells, 72th hour, read-out: 1050 (50% concentration of inhibition). Here is the method: Colo 205 human rectum tumor cells were inoculated in a 24-well culture dish (1×10^4 cells/well), and incubated in an incubator at 37° C. under 5% CO2 for 24 hours. Then, the active component (KCY-Tai 1 and KCY-Tai 2) or polysaccharide nanocomposite particles (KCY-Tai 1-CNPs and KCY-Tai 2-CNPs 2) with different concentrations (0.39 to 12.5 μg/ml) was respectively added into the culture dish, and the cells were incubated for 24, 72, and 120 hours. The cells were washed with 1×PBS twice. MTT (3-(4,5-dimethyl thiazole-2-yl)-2,5-diphenyl tetrazolium bromide) (0.5 mg/ml) was added to the culture dish (200 μl/well), and the dish was placed in an incubator at 37° C. under 5% CO2. After incubating for 4 hours, MTT was sucked out and removed, and […] dimethyl sulfoxide (DMSO) was added into each well. After incubating on the shaker for 30 minutes, […] of the sample was sucked out from each well and transferred into a 96-well culture dish. The absorbance of the sample was determined under the wavelength of 570 nm by an enzyme-linked immunosorbent assay (ELISA) reader.

Data set [3] has as its system lung cancer cells, breast cancer cells, and rectal cancer cells. Particulars: cited from earlier work.

As to `O=C1OCC(=C/c2ccc3c(c2)OCO3)/C1=C\c1ccc2c(c1)OCO2` [KCY-Tai 1], the “Surface potential (mV)” value in data set [1] is −22.5 mV. In addition, the p53 protein activation entry in the data set on p53 protein is given as “activation of p53 protein”. Also, the cell cycle effect entry with HepG2/A2 (accumulation of cyclin B1/cdc2 complex) is “arrested at G2/M phase”. Further, in the data set on HepG2/A2, the “apoptosis markers (micronucleation, DNA fragmentation, caspase-3)” value is “activation of caspase-3” and the “effect on mitotic spindle (immunofluorescence staining)” value is given as “interrupt the formation of mitotic spindle”. Further, the IC50 in data set [2] was 3 µg/mL (≈ 8.56 µM). Further, the “cytotoxicity effects on lung, breast and rectal cancer cells” value in data set [3] was “significant cytotoxicity effects”.

For `COc1cc(/C=C2/C(=O)OC/C2=C/c2ccc3c(c2)OCO3)cc(OC)c1OC` [KCY-Tai 2], the “Surface potential (mV)” value in data set [1] was −11.8 mV. The IC50 in data set [2] was found to be 0.7 µg/mL (≈ 1.77 µM). Also, in data set [3], the “cytotoxicity effects on lung, breast and rectal cancer cells” value is recorded as “significant cytotoxicity effects”.
